Test results taken from PubChem BioAssay AID248 (DTP/NCI, 2004).
Values joined by “and” are separate entries in the source; they are usually repeats but may differ in a detail not shown here. Equal values may be shown once. Inconclusive results and toxic doses are left out.

System: L1210 leukemia ip in BDF1 mice, survival T/C
Test: NCI In Vivo Anticancer Drug Screen. Data for tumor model L1210 Leukemia (intraperitoneal) in B6D2F1 (BDF1) mice
Settings: endpoint: mean survival time, higher = longer survival
Summary of the method: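 Survival endpoint. Drug-treated group vs vehicle group, expressed as T divided by C. Tumor passaged by transplantation.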

[1] = dose: 100.0 mg/kg/injection, schedule: Q01DX001 (ip), vehicle: Klucel (hydroxypropylcellulose) (HPC)
[2] = dose: 200.0 mg/kg/injection, schedule: Q01DX001 (ip), vehicle: Klucel (hydroxypropylcellulose) (HPC)
[3] = dose: 50.0 mg/kg/injection, schedule: Q01DX009 (ip), vehicle: Klucel (hydroxypropylcellulose) (HPC)
[4] = dose: 25.0 mg/kg/injection, schedule: Q04DX003 (ip), vehicle: saline
[5] = dose: 50.0 mg/kg/injection, schedule: Q01DX009 (ip), vehicle: saline
[6] = dose: 50.0 mg/kg/injection, schedule: Q04DX003 (ip), vehicle: saline
[7] = dose: 100.0 mg/kg/injection, schedule: Q01DX009 (ip), vehicle: saline
[8] = dose: 100.0 mg/kg/injection, schedule: Q04DX003 (ip), vehicle: saline
[9] = dose: 100.0 mg/kg/injection, schedule: Q01DX001 (ip), vehicle: saline
[10] = dose: 200.0 mg/kg/injection, schedule: Q01DX001 (ip), vehicle: saline
[11] = dose: 400.0 mg/kg/injection, schedule: Q01DX001 (ip), vehicle: saline
[12] = dose: 200.0 mg/kg/injection, schedule: Q04DX003 (ip), vehicle: saline
[13] = dose: 400.0 mg/kg/injection, schedule: Q04DX003 (ip), vehicle: saline
[14] = dose: 100.0 mg/kg/injection, schedule: Q01DX001 (ip), vehicle: saline with Tween-80
[15] = dose: 200.0 mg/kg/injection, schedule: Q01DX001 (ip), vehicle: saline with Tween-80
[16] = dose: 100.0 mg/kg/injection, schedule: Q01DX001 (ip), vehicle: other
[17] = dose: 200.0 mg/kg/injection, schedule: Q01DX001 (ip), vehicle: other
[18] = dose: 400.0 mg/kg/injection, schedule: Q01DX001 (ip), vehicle: other

Compound: CCCN=C(N)c1ccc(NC(=O)c2ccc(C(=O)Nc3ccc(C(N)=NCCC)cc3)cc2)cc1
- T/C (dose: 0.16 mg/kg/injection, schedule: Q01DX Z (ip), vehicle: carboxymethylcellulose (CMC)): 105 % of control
- T/C (dose: 0.31 mg/kg/injection, schedule: Q01DX Z (ip), vehicle: carboxymethylcellulose (CMC)): 113 % of control
- T/C (dose: 1.25 mg/kg/injection, schedule: Q01DX Z (ip), vehicle: carboxymethylcellulose (CMC)): 211 % of control and 257 % of control
- T/C (dose: 2.5 mg/kg/injection, schedule: Q01DX Z (ip), vehicle: carboxymethylcellulose (CMC)): 190 % of control
- T/C (dose: 3.0 mg/kg/injection, schedule: Q01DX001 (ip), vehicle: carboxymethylcellulose (CMC)): 114 % of control
- T/C (dose: 10.0 mg/kg/injection, schedule: Q01DX001 (ip), vehicle: carboxymethylcellulose (CMC)): 169 % of control
- T/C (dose: 10.0 mg/kg/injection, schedule: Q01DX001 (ip), vehicle: other): 157 % of control
- T/C (dose: 10.0 mg/kg/injection, schedule: Q01DX Z (ip), vehicle: carboxymethylcellulose (CMC)): 113 % of control
- T/C (dose: 15.0 mg/kg/injection, schedule: Q01DX001 (ip), vehicle: carboxymethylcellulose (CMC)): 176 % of control and 180 % of control
- T/C (dose: 15.0 mg/kg/injection, schedule: Q01DX001 (ip), vehicle: other): 168 % of control and 191 % of control
- T/C (dose: 22.5 mg/kg/injection, schedule: Q01DX001 (ip), vehicle: carboxymethylcellulose (CMC)): 268 % of control
- T/C (dose: 22.5 mg/kg/injection, schedule: Q01DX001 (ip), vehicle: other): 234 % of control
- T/C (dose: 33.0 mg/kg/injection, schedule: Q01DX001 (ip), vehicle: carboxymethylcellulose (CMC)): 257 % of control
- T/C (dose: 33.0 mg/kg/injection, schedule: Q01DX001 (ip), vehicle: other): 269 % of control
- T/C (dose: 50.0 mg/kg/injection, schedule: Q01DX Z (oral), vehicle: carboxymethylcellulose (CMC)): 104 % of control
- T/C (dose: 100.0 mg/kg/injection, schedule: Q01DX Z (oral), vehicle: carboxymethylcellulose (CMC)): 107 % of control
- T/C (dose: 200.0 mg/kg/injection, schedule: Q01DX Z (oral), vehicle: carboxymethylcellulose (CMC)): 103 % of control
- T/C (dose: 400.0 mg/kg/injection, schedule: Q01DX Z (oral), vehicle: carboxymethylcellulose (CMC)): 98 % of control

Compound: ClC1(Cl)C2CC3C4C=CC(C4)C3C21 (configuration not stated)
- T/C [1]: 108 % of control
- T/C [2]: 100 % of control

Compound: CSc1nc(N)cc(NC(=O)CCl)n1
- T/C [3]: 101 % of control
- T/C (dose: 100.0 mg/kg/injection, schedule: Q01DX009 (ip), vehicle: Klucel (hydroxypropylcellulose) (HPC)): 102 % of control
- T/C (dose: 100.0 mg/kg/injection, schedule: Q04DX003 (ip), vehicle: Klucel (hydroxypropylcellulose) (HPC)): 92 % of control
- T/C (dose: 200.0 mg/kg/injection, schedule: Q04DX003 (ip), vehicle: Klucel (hydroxypropylcellulose) (HPC)): 92 % of control

Compound: O=C(OCCN1CCCC1)C(c1ccccc1)C1(O)CCCC1 (configuration not stated)
- T/C (dose: 25.0 mg/kg/injection, schedule: Q01DX009 (ip), vehicle: saline): 103 % of control
- T/C [4]: 104 % of control
- T/C [5]: 102 % of control
- T/C [6]: 101 % of control
- T/C [7]: 117 % of control
- T/C [8]: 96 % of control and 97 % of control

Compound: Cc1cn(C2CC(CO)CC2O)c(=O)[nH]c1=O (configuration not stated)
- T/C [5]: 104 % of control
- T/C [7]: 107 % of control
- T/C (dose: 200.0 mg/kg/injection, schedule: Q01DX009 (ip), vehicle: saline): 107 % of control

Compound: Cc1cc(C(C)(C)C)c(OC(=S)N(C)C)c(C(C)(C)C)c1
- T/C (dose: 12.5 mg/kg/injection, schedule: Q04DX003 (ip), vehicle: saline with Tween-80): 96 % of control
- T/C (dose: 25.0 mg/kg/injection, schedule: Q04DX003 (ip), vehicle: saline with Tween-80): 94 % of control
- T/C (dose: 50.0 mg/kg/injection, schedule: Q04DX003 (ip), vehicle: saline with Tween-80): 100 % of control

Compound: O=C1Nc2cccc3cc([N+](=O)[O-])cc1c23
- T/C [9]: 101 % of control
- T/C [10]: 93 % of control
- T/C [11]: 103 % of control

Compound: CCOC(=O)Cn1ccc(=O)[nH]c1=O
- T/C [8]: 98 % of control
- T/C [12]: 96 % of control
- T/C [13]: 102 % of control

Compound: Cc1c2ccccc2c(C)c2c1c(F)cc1ccccc12
- T/C (dose: 37.5 mg/kg/injection, schedule: Q01DX001 (ip), vehicle: Klucel (hydroxypropylcellulose) (HPC)): 120 % of control

Compound: O=C1C(Cl)=C(Cl)C(=O)c2cc(Cl)c(Cl)cc21
- T/C (dose: 10.0 mg/kg/injection, schedule: Q01DX001 (ip), vehicle: saline): 93 % of control

Compound: CCOC(=O)CNC(=O)N(CCCl)N=O
- T/C (dose: 150.0 mg/kg/injection, schedule: Q01DX Z (ip), vehicle: carboxymethylcellulose (CMC)): 102 % of control
- T/C (dose: 250.0 mg/kg/injection, schedule: Q01DX Z (ip), vehicle: carboxymethylcellulose (CMC)): 112 % of control

Compound: O=S(=O)(CC(Cl)c1ccccc1)c1ccc(Br)cc1 (configuration not stated)
- T/C [9]: 94 % of control
- T/C [8]: 94 % of control
- T/C [10]: 92 % of control
- T/C [12]: 96 % of control
- T/C [11]: 92 % of control
- T/C [13]: 94 % of control

Compound: N#Cc1cccc(NC(=O)COc2cccc(Cl)c2)c1
- T/C [1]: 94 % of control
- T/C [2]: 87 % of control
- T/C (dose: 400.0 mg/kg/injection, schedule: Q01DX001 (ip), vehicle: Klucel (hydroxypropylcellulose) (HPC)): 90 % of control

Compound: C=C1CC(CC)C(C)OC1=O (configuration not stated)
- T/C [9]: 102 % of control
- T/C [10]: 102 % of control
- T/C [11]: 98 % of control

Compound: COc1ccc(NC(=O)Nc2cccc(Cl)c2C)c(OC)c1
- T/C [14]: 98 % of control
- T/C (dose: 100.0 mg/kg/injection, schedule: Q01DX009 (ip), vehicle: saline with Tween-80): 93 % of control and 89 % of control
- T/C (dose: 100.0 mg/kg/injection, schedule: Q04DX002 (ip), vehicle: saline with Tween-80): 93 % of control and 92 % of control
- T/C (dose: 100.0 mg/kg/injection, schedule: Q04DX003 (ip), vehicle: saline with Tween-80): 86 % of control
- T/C [15]: 102 % of control
- T/C (dose: 200.0 mg/kg/injection, schedule: Q01DX009 (ip), vehicle: saline with Tween-80): 94 % of control and 86 % of control
- T/C (dose: 200.0 mg/kg/injection, schedule: Q04DX002 (ip), vehicle: saline with Tween-80): 104 % of control and 90 % of control
- T/C (dose: 200.0 mg/kg/injection, schedule: Q04DX003 (ip), vehicle: saline with Tween-80): 86 % of control
- T/C (dose: 400.0 mg/kg/injection, schedule: Q01DX001 (ip), vehicle: saline with Tween-80): 100 % of control
- T/C (dose: 400.0 mg/kg/injection, schedule: Q01DX009 (ip), vehicle: saline with Tween-80): 97 % of control and 110 % of control
- T/C (dose: 400.0 mg/kg/injection, schedule: Q04DX002 (ip), vehicle: saline with Tween-80): 90 % of control
- T/C (dose: 400.0 mg/kg/injection, schedule: Q04DX003 (ip), vehicle: saline with Tween-80): 91 % of control

Compound: CCc1ccc(NC2=NCCO2)cc1
- T/C (dose: 12.5 mg/kg/injection, schedule: Q04DX003 (ip), vehicle: saline): 112 % of control
- T/C (dose: 25.0 mg/kg/injection, schedule: Q01DX009 (ip), vehicle: Klucel (hydroxypropylcellulose) (HPC)): 100 % of control
- T/C [4]: 114 % of control
- T/C [3]: 95 % of control
- T/C [6]: 101 % of control
- T/C [8]: 102 % of control

Compound: O=C(CC(O)C(Cl)(Cl)Cl)CC(O)C(Cl)(Cl)Cl (configuration not stated)
- T/C (dose: 100.0 mg/kg/injection, schedule: Q04DX002 (ip), vehicle: saline): 96 % of control
- T/C (dose: 200.0 mg/kg/injection, schedule: Q04DX002 (ip), vehicle: saline): 107 % of control

Compound: Cc1cc(C)cc(N=Cc2ccccc2)c1
- T/C (dose: 50.0 mg/kg/injection, schedule: Q01DX001 (ip), vehicle: saline with Tween-80): 98 % of control
- T/C [14]: 98 % of control
- T/C [15]: 95 % of control

Compound: CC(C)CC(NS(=O)(=O)Cc1ccccc1)C(=O)NN (configuration not stated)
- T/C [16]: 98 % of control
- T/C [17]: 96 % of control
- T/C [18]: 110 % of control

Compound: CC#CC(C)(O)C(=O)OC (configuration not stated)
- T/C [16]: 105 % of control
- T/C [17]: 98 % of control
- T/C [18]: 94 % of control
